Tested on: macaques
Test: Replication of the SIV virus expressing Cre recombinase after infection in macaques (viral RNA in plasma)
Format: in vivo
Conditions: one macaque infected, FIG. 17
Source text: FIG. 17 is a graph showing the replication of the SIV virus expressing Cre recombinase evaluated by the number of copies of viral RNA/ml of plasma (y-axis) after infection in macaques, as a function of time (in days).
The dose and the route of infection are able to be modified as a function of the scientific aims of the experimentation. A method is briefly described below: • Infect the macaques intravenously (50 AID50) or mucosally (50-5000 AID50). • Monitor the viral load in kinetic conditions by quantification of the viral RNAs in the plasma of the infected animals.

SIVmac239-Nef-IRES-Cre: SIVmac239 virus expressing Cre recombinase via Nef-IRES-Cre (SEQ ID NO: 25; plasmid SEQ ID NO: 13)
replication dynamics (copies of viral RNA/ml of plasma over time): normal replication dynamics
